# Literature values as cited in patent US20220370613A1, “PHARMACEUTICAL COMPOSITION” (Renown Pharma Inc., priority 2019, published 2022).
# Columns and labels:
# [1] = tested on: "on-off" fluctuations in Parkinson's disease; conditions: subcutaneous injection
# [2] = tested on: "switched on" response; conditions: sublingual administration
structure (smiles),measurement,setting,value
CN1CCc2cccc3c2[C@H]1Cc1ccc(O)c(O)c1-3 [apomorphine],duration of effect,[1],45 to 90 min
same,time to effect,[1],5 to 15 min
same,mean time to onset of effect,[2],approximately 30 minutes
same,pKa,,8.9
